US8987254B2, “Tetrahydropyrrolothiazine compounds” (Eli Lilly and Company, priority 2013, dated 2015)
Structures can show the parent of a compound that is named as a salt. Where two headings read alike, the source gives them in different places.

Columns and labels:
[1] = tested on: primary cortical neurons from PDAPP transgenic embryonic mice; assay: PDAPP Primary Neuronal Assay (Abeta ELISA); format: cell-based; conditions: Mus musculus, Primary cortical neuron, 24 h
Procedure: (§1) For in vitro enzymatic and cellular assays, test compounds are prepared in DMSO to make up a 10 mM stock solution. The stock solution is serially diluted in DMSO to obtain a ten-point dilution curve with final compound concentrations ranging from […] to 0.05 nM in a 96-well round-bottom plate before conducting the in vitro enzymatic and whole cell assays.
A confirmatory whole cell assay is also run in primary neuronal cultures generated from PDAPP transgenic embryonic mice. Primary cortical neurons are prepared from Embryonic Day 16 PDAPP embryos and cultured in 96 well plates (15×10^4 cells/well in DMEM/F12 (1:1) plus 10% FBS). After 2 days in vitro, culture media is replaced with serum free DMEM/F12 (1:1) containing B27 supplement and 2 μM (final) of Ara-C (Sigma, C1768). At day 5 in vitro, neurons are incubated at 37° C. for 24 h in the presence/absence of inhibitors (diluted in DMSO) at the desired concentration. At the end of the incubation, conditioned media are analyzed for evidence of beta-secretase activity, for example, by analysis of Abeta peptides. Total Abeta peptides (Abeta 1-x) are measured by a sandwich ELISA, using monoclonal 266 as a capture antibody and biotinylated 3D6 as reporting antibody. Alternatively, Abeta 1-40 and Abeta 1-42 peptides are measured by a sandwich ELISA, using monoclonal 2G3 as a capture antibody for Abeta 1-40, and monoclonal 21F12 as a capture antibody for Abeta 1-42. Both Abeta 1-40 and Abeta 1-42 ELISAs use biotinylated 3D6 as the reporting antibody. The concentration of Abeta released in the conditioned media following the compound treatment corresponds to the activity of BACE1 under such conditions. The 10-point inhibition curve is plotted and fitted with the four-parameter logistic equation to obtain the EC50 and IC50 values for the Abeta-lowering effect.

human BACE1(1-460):Fc = human BACE1(1-460):Fc (Homo sapiens (Human), UniProt P56817); assay: BACE1 FRET Assay; format: biochemical; conditions: purified recombinant huBACE1:Fc, FRET substrate, pH 4.6; Mean ± SEM
Chain of human BACE1(1-460):Fc (P56817 22-460): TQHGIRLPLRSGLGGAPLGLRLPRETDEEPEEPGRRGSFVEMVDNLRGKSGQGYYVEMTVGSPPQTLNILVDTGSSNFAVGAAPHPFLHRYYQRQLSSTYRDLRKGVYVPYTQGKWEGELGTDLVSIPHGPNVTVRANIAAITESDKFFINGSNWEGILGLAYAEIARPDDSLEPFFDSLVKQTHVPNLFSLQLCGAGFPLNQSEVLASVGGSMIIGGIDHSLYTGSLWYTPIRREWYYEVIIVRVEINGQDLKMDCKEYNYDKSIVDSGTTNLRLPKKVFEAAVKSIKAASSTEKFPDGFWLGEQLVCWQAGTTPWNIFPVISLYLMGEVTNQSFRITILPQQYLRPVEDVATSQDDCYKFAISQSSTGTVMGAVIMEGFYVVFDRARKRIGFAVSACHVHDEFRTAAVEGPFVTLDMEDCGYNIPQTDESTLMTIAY
Procedure: as §1
Human BACE1 (accession number: AF190725) is cloned from total brain cDNA by RT-PCR. The nucleotide sequences corresponding to amino acid sequences #1 to 460 are inserted into the cDNA encoding human IgG1 (Fc) polypeptide (Vassar et al. 1999). This fusion protein of BACE1(1-460) and human Fc, named huBACE1:Fc, is constructed into the pJB02 vector. Human BACE1(1-460):Fc (huBACE1:Fc) is transiently expressed in HEK293 cells. 250 μg cDNA of each construct is mixed with Fugene 6 and added to 1 liter HEK293 cells. Four days after the transfection, conditioned media are harvested for purification.
huBACE1:Fc is purified by Protein A chromatography. The enzyme is stored at −80° C. in small aliquots.
Serial dilutions of test compounds are prepared as described above. Compounds are further diluted 20× in KH2PO4 buffer. […] The content is mixed well on a plate shaker for 10 minutes. Fifteen μL of two hundred pM human BACE1(1-460):Fc (See Vasser, et al., Science, 286, 735-741 (1999)) in the KH2PO4 buffer is added to the plate containing substrate and test compounds to initiate the reaction. The RFU of the mixture at time 0 is recorded at excitation wavelength 355 nm and emission wavelength 460 nm, after brief mixing on a plate shaker. The reaction plate is covered with aluminum foil and kept in a dark humidified oven at room temperature for 16 to 24 h. The RFU at the end of incubation is recorded with the same excitation and emission settings used at time 0. The difference of the RFU at time 0 and the end of incubation is representative of the activity of BACE1 under the compound treatment. RFU differences are plotted versus inhibitor concentration and a curve is fitted with a four-parameter logistic equation to obtain the EC50 and IC50 values. (See Sinha, et al., Nature, 402, 537-540 […]).

HEK293Swe cells = assay: HEK293Swe Whole Cell Assay (Abeta ELISA); format: cell-based; conditions: Homo sapiens
Procedure: as §1
In vitro Abeta reduction assays have been described in the literature (See Dovey, et al., Journal of Neurochemistry, 76, 173-181 (2001); Seubert, et al., Nature, 361, 260 (1993); and Johnson-Wood, et al., Proc. Natl. Acad. Sci. USA, 94, 1550-1555 (1997)).
At the end of the incubation, conditioned media are analyzed for evidence of beta-secretase activity, for example, by analysis of Abeta peptides. Total Abeta peptides (Abeta 1-x) are measured by a sandwich ELISA, using monoclonal 266 as a capture antibody and biotinylated 3D6 as reporting antibody. Alternatively, Abeta 1-40 and Abeta 1-42 peptides are measured by a sandwich ELISA, using monoclonal 2G3 as a capture antibody for Abeta 1-40, and monoclonal 21F12 as a capture antibody for Abeta 1-42. Both Abeta 1-40 and Abeta 1-42 ELISAs use biotinylated 3D6 as the reporting antibody. The concentration of Abeta released in the conditioned media following the compound treatment corresponds to the activity of BACE1 under such conditions. The 10-point inhibition curve is plotted and fitted with the four-parameter logistic equation to obtain the EC50 and IC50 values for the Abeta-lowering effect.

PDAPP mice = assay: In Vivo Inhibition of Beta-Secretase (brain Abeta 1-x reduction); set-up: species or system mouse; conditions: for Abeta 1-x peptide levels reduced in brain cortex / Abeta 1-x peptide levels reduced in brain hippocampus: 3 hours after administration, compared to vehicle-treated mice
Excerpt: Several animal models, including mouse, guinea pig, dog, and monkey, may be used to screen for inhibition of beta-secretase activity in vivo following compound treatment. Animals used in this invention can be wild type, transgenic, or gene knockout animals. For example, the PDAPP mouse model, prepared as described in Games et al., Nature 373, 523-527 (1995), and other non-transgenic or gene knockout animals are useful to analyze in vivo inhibition of Abeta and sAPPbeta production in the presence of inhibitory compounds. Generally, 2 to 12 month old PDAPP mice, gene knockout mice or non-transgenic animals are administered compound formulated in vehicles, such as corn oil, cyclodextran, phosphate buffers, PHARMASOLVE®, or other suitable vehicles. One to twenty-four hours following the administration of compound, animals are sacrificed, and brains as well as cerebrospinal fluid and plasma are removed for analysis of Abetas, C99, and sAPP fragments. (See May, et al., Journal of Neuroscience, 31, 16507-16516 (2011)).
For standard in vivo pharmacology studies, animals are dosed with various concentrations of compound and compared to a vehicle-treated control group dosed at the same time. For some time course studies, brain tissue, plasma, or cerebrospinal fluid is obtained from selected animals, beginning at time 0 to establish a baseline. Compound or appropriate vehicle is administered to other groups and sacrificed at various times after dosing. Brain tissue, plasma, or cerebrospinal fluid is obtained from selected animals and analyzed for the presence of APP cleavage products, including Abeta peptides, sAPPbeta, and other APP fragments, for example, by specific sandwich ELISA assays. At the end of the test period, animals are sacrificed and brain tissues, plasma, or cerebrospinal fluid are analyzed for the presence of Abeta peptides, C99, and sAPPbeta, as appropriate. Brain tissues of APP transgenic animals may also be analyzed for the amount of beta-amyloid plaques following compound treatment. “Abeta 1-x peptide” as used herein refers to the sum of Abeta species that begin with residue 1 and ending with a C-terminus greater than residue 28. This detects the majority of Abeta species and is often called “total Abeta”.

[2] = Abeta 1-40, Mean ± SEM, read-out: PDAPP Neuron A-beta (1-40) ELISA IC50
[3] = Abeta 1-42, Mean ± SEM, read-out: PDAPP Neuron A-beta (1-42) ELISA IC50
[4] = HEK293, Abeta 1-40 in conditioned media, read-out: HEK 293 Swe A-beta (1-40) ELISA IC50
[5] = HEK293, Abeta 1-42 in conditioned media, read-out: HEK 293 Swe A-beta (1-42) ELISA IC50

Structure (SMILES) | IC50 [1, 2] | IC50 [1, 3] | IC50 (human BACE1(1-460):Fc) | IC50 (HEK293Swe cells; [4]) | IC50 (HEK293Swe cells; [5]) | CNS penetration (PDAPP mice) | Abeta 1-x peptide levels reduced in brain cortex (PDAPP mice; 1 mg/kg oral dose) | Abeta 1-x peptide levels reduced in brain hippocampus (PDAPP mice; 1 mg/kg oral dose) | Abeta 1-x peptide levels reduced in brain cortex (PDAPP mice; 3 mg/kg oral dose) | Abeta 1-x peptide levels reduced in brain hippocampus (PDAPP mice; 3 mg/kg oral dose) | Abeta 1-x peptide levels reduced in brain cortex (PDAPP mice; 10 mg/kg oral dose) | Abeta 1-x peptide levels reduced in brain hippocampus (PDAPP mice; 10 mg/kg oral dose)
NC1=N[C@@]2(c3cc(NC(=O)c4ncc(F)cc4F)ccc3F)CN(c3ncc(F)cn3)C[C@H]2CS1 [Example 8, N-[3-[(4aR,7aS)-2-Amino-6-(5-fluoropyrimidin-2-yl)-4,4a,5,7-tetrahydropyrrolo[3,4-d][1,3]thiazin-7a-yl]-4-fluoro-phenyl]-3,5-difluoro-pyridine-2-carboxamide hydrochloride] | 285 pM | 290 pM |  |  |  |  |  |  |  |  |  | 
COc1cnc(C(=O)Nc2ccc(F)c([C@]34CN(c5ncc(F)cn5)C[C@H]3CSC(N)=N4)c2)cn1 [Example 4, N-[3-[(4aR,7aS)-2-Amino-6-(5-fluoropyrimidin-2-yl)-4,4a,5,7-tetrahydropyrrolo[3,4-d][1,3]thiazin-7a-yl]-4-fluoro-phenyl]-5-methoxy-pyrazine-2-carboxamide hydrochloride] | 134 pM | 131 pM |  |  |  |  |  |  |  |  |  | 
N#Cc1ccc(C(=O)Nc2ccc(F)c([C@]34CN(c5ncc(F)cn5)C[C@H]3CSC(N)=N4)c2)nc1 [Example 7, N-[3-[(4aR,7aS)-2-Amino-6-(5-fluoropyrimidin-2-yl)-4,4a,5,7-tetrahydropyrrolo[3,4-d][1,3]thiazin-7a-yl]-4-fluoro-phenyl]-5-cyano-pyridine-2-carboxamide hydrochloride] | 87.3 pM | 64.9 pM | 358 pM |  |  |  |  |  |  |  |  | 
N#Cc1ccc(C(=O)Nc2cccc([C@]34CN(c5ncc(F)cn5)C[C@H]3CSC(N)=N4)c2)nc1 [Example 5, N-[3-[(4aR,7aS)-2-Amino-6-(5-fluoropyrimidin-2-yl)-4,4a,5,7-tetrahydropyrrolo[3,4-d][1,3]thiazin-7a-yl]phenyl]-5-cyano-pyridine-2-carboxamide hydrochloride] | 132 pM | 81.3 pM | 450 pM | 88.7 pM | 78.5 pM |  |  |  |  |  |  | 
COc1cnc(C(=O)Nc2cccc([C@]34CN(c5ncc(F)cn5)C[C@H]3CSC(N)=N4)c2)cn1 [Example 2, N-{3-[(4aR,7aS)-2-Amino-6-(5-fluoropyrimidin-2-yl)-4a,5,6,7-tetrahydropyrrolo[3,4-d][1,3]thiazin-7a(4H)-yl]phenyl}-5-methoxypyrazine-2-carboxamide hydrochloride] | 244 pM | 1220 pM | 482 pM | 324 pM | 289 pM |  |  |  |  |  |  | 
Cl.NC1=N[C@@]2(c3cc(NC(=O)c4ccc(F)cn4)ccc3F)CN(c3ncc(F)cn3)C[C@H]2CS1 [Example 3, N-[3-[(4aR,7aS)-2-Amino-6-(5-fluoropyrimidin-2-yl)-4,4a,5,7-tetrahydropyrrolo[3,4-d][1,3]thiazin-7a-yl]-4-fluoro-phenyl]-5-fluoro-pyridine-2-carboxamide hydrochloride] | 309 pM | 184 pM |  | 1260 pM | 299 pM | demonstrate CNS penetration | approximately 34% | approximately 38% | ~53% | ~50% |  | 
Cl.NC1=N[C@@]2(c3cccc(NC(=O)c4ccc(F)cn4)c3)CN(c3ncc(F)cn3)C[C@H]2CS1 [Example 1, N-{3-[(4aR,7aS)-2-Amino-6-(5-fluoropyrimidin-2-yl)-4a,5,6,7-tetrahydropyrrolo[3,4-d][1,3]thiazin-7a(4H)-yl]phenyl}-5-fluoropyridine-2-carboxamide hydrochloride] | 487 pM | 591 pM | 610 pM | 619 pM | 437 pM | demonstrate CNS penetration | approximately 43% | approximately 34% | ~59% | ~48% | ~66% | ~53%
NC1=N[C@@]2(c3cccc(NC(=O)c4ncc(F)cc4F)c3)CN(c3ncc(F)cn3)C[C@H]2CS1 [Example 6, N-[3-[(4aR,7aS)-2-Amino-6-(5-fluoropyrimidin-2-yl)-4,4a,5,7-tetrahydropyrrolo[3,4-d][1,3]thiazin-7a-yl]phenyl]-3,5-difluoro-pyridine-2-carboxamide hydrochloride] | 279 pM | 308 pM | 739 pM | 220 pM | 211 pM |  |  |  |  |  |  | 
